Results published in patent US20240228535A1 (priority 2022, published 2024).

Each compound was assayed against SARS2 coronavirus 3CL protease (Severe acute respiratory syndrome coronavirus 2, UniProt P0DTD1) (assay: biochemical). Conditions: 5 nM enzyme, 30 min pre-incubation with compound, 15 μM peptide substrate, 4 h at room temperature; read-out: FRET Potency (nM); IC50 values in the SARS2 3CLPro FRET assay.

Structure (SMILES)	IC50 [nM]
CNC(=O)C(=O)[C@H](C[C@@H]1CCNC1=O)NC(=O)c1cc(Cl)ccc1NC(=O)OCC1CC1 [Example 136, cyclopropylmethyl N-[4-chloro-2-[[(1S)-3-(methylamino)-2,3-dioxo-1-[[(3S)-2-oxopyrrolidin-3-yl]methyl]propyl]carbamoyl]phenyl]carbamate]	3.6
CNC(=O)C(=O)[C@H](C[C@@H]1CCNC1=O)NC(=O)c1cc(Cl)ccc1NC(=O)OC1CCC1 [Example 137, cyclobutyl N-[4-chloro-2-[[(1S)-3-(methylamino)-2,3-dioxo-1-[[(3S)-2-oxopyrrolidin-3-yl]methyl]propyl]carbamoyl]phenyl]carbamate]	5.4
CNC(=O)C(=O)[C@H](C[C@@H]1CCNC1=O)NC(=O)c1cc(Cl)ccc1NC(=O)OC1(C)CC1 [Example 138, (1-methylcyclopropyl) N-[4-chloro-2-[[(1S)-3-(methylamino)-2,3-dioxo-1-[[(3S)-2-oxopyrrolidin-3-yl]methyl]propyl]carbamoyl]phenyl]carbamate]	18.6
CCOC(=O)Nc1ccc(Cl)cc1C(=O)N[C@@H](C[C@@H]1CCNC1=O)C(=O)C(=O)NC1CC1 [Example 139]	6.3
CNC(=O)C(=O)[C@H](C[C@@H]1C[C@@H](C)NC1=O)NC(=O)c1cc(Cl)cnc1NC(=O)OC1CC1 [Example 140, cyclopropyl N-[5-chloro-3-[[(1S)-3-(methylamino)-1-[[(3S,5R)-5-methyl-2-oxo-pyrrolidin-3-yl]methyl]-2,3-dioxo-propyl]carbamoyl]-2-pyridyl]carbamate]	9.2
CNC(=O)C(=O)[C@H](C[C@@H]1C[C@@H](C)NC1=O)NC(=O)c1cc(F)c(F)cc1NC(=O)OC1CC1 [Example 141, cyclopropyl N-[4,5-difluoro-2-[[(1S)-3-(methylamino)-1-[[(3S,5R)-5-methyl-2-oxo-pyrrolidin-3-yl]methyl]-2,3-dioxo-propyl]carbamoyl]phenyl] carbamate]	19.8
CNC(=O)C(=O)[C@H](C[C@@H]1CCNC1=O)NC(=O)c1cc(Cl)ccc1NC(=O)OC(C)(C)C [Example 142, tert-butyl N-[4-chloro-2-[[(1S)-3-(methylamino)-2,3-dioxo-1-[[(3S)-2-oxopyrrolidin-3-yl]methyl]propyl]carbamoyl]phenyl]carbamate]	41.1
CNC(=O)C(=O)[C@H](C[C@@H]1CCNC1=O)NC(=O)c1cc(Cl)ccc1NC(=O)[C@H]1CC1(F)F [Example 143, 5-chloro-2-[[(1R)-2,2-difluorocyclopropanecarbonyl]amino]-N-[(1S)-3-(methylamino)-2,3-dioxo-1-[[(3S)-2-oxopyrrolidin-3-yl]methyl]propyl]benzamide]	3
CNC(=O)C(=O)[C@H](C[C@@H]1C[C@@H](C)NC1=O)NC(=O)c1cc(Cl)c(Cl)cc1NC(=O)OC [Example 144, methyl N-[4,5-dichloro-2-[[(1S)-3-(methylamino)-1-[[(3S,5R)-5-methyl-2-oxo-pyrrolidin-3-yl]methyl]-2,3-dioxo-propyl]carbamoyl]phenyl] carbamate]	5.3
C[C@@H]1C[C@@H](C[C@H](NC(=O)c2cc(Cl)ccc2NC(=O)C2CC2)C(=O)C(=O)NC2CC2)C(=O)N1 [Example 145, 5-chloro-2-(cyclopropanecarbonylamino)-N-[(1S)-3-(cyclopropylamino)-1-[[(3S,5R)-5-methyl-2-oxo-pyrrolidin-3-yl]methyl]-2,3-dioxo-propyl]benzamide]	26.8
O=C(Nc1ccc(Cl)cc1C(=O)N[C@@H](C[C@@H]1CCNC1=O)C(=O)C(=O)NC1CC1)OC1CC1 [Example 146, cyclopropyl N-[4-chloro-2-[[(1S)-3-(cyclopropylamino)-2,3-dioxo-1-[[(3S)-2-oxopyrrolidin-3-yl]methyl]propyl]carbamoyl]phenyl]carbamate]	3.9
CC(C)C(=O)Nc1ccc(Cl)cc1C(=O)N[C@@H](C[C@@H]1C[C@@H](C)NC1=O)C(=O)C(=O)NC1CC1 [Example 147, 5-chloro-N-[(1S)-3-(cyclopropylamino)-1-[[(3S,5R)-5-methyl-2-oxo-pyrrolidin-3-yl]methyl]-2,3-dioxo-propyl]-2-(2-methylpropanoylamino) benzamide]	11.6
C[C@@H]1C[C@@H](C[C@H](NC(=O)c2cc(Cl)ccc2NC(=O)N(C)C)C(=O)C(=O)NC2CC2)C(=O)N1 [Example 148, 5-chloro-N-[(1S)-3-(cyclopropylamino)-1-[[(3S,5R)-5-methyl-2-oxo-pyrrolidin-3-yl]methyl]-2,3-dioxo-propyl]-2-(dimethylcarbamoylamino) benzamide]	24.7
CNC(=O)C(=O)[C@H](C[C@@H]1C[C@@H](C)NC1=O)NC(=O)c1cc(Cl)ccc1NC(=O)C1CN(C)C1 [Example 149, N-[4-chloro-2-[[(1S)-3-(methylamino)-1-[[(3S,5R)-5-methyl-2-oxo-pyrrolidin-3-yl]methyl]-2,3-dioxo-propyl]carbamoyl]phenyl]-1-methyl-azetidine-3-carboxamide]	10.8
O=C(Nc1cc(F)c(F)cc1C(=O)N[C@@H](C[C@@H]1CCNC1=O)C(=O)C(=O)NC1CC1)OC1CC1 [Example 150]	17.9
CNC(=O)C(=O)[C@H](C[C@@H]1C[C@@H](C)NC1=O)NC(=O)c1cc(Cl)ccc1NC(=O)OC1CCC1 [Example 151, cyclobutyl N-[4-chloro-2-[[(1S)-3-(methylamino)-1-[[(3S,5R)-5-methyl-2-oxo-pyrrolidin-3-yl]methyl]-2,3-dioxo-propyl]carbamoyl]phenyl] carbamate]	5.1
CNC(=O)C(=O)[C@H](C[C@@H]1C[C@@H](C)NC1=O)NC(=O)c1cc(Cl)ccc1NC(=O)OCC1CC1 [Example 152, cyclopropylmethyl N-[4-chloro-2-[[(1S)-3-(methylamino)-1-[[(3S,5R)-5-methyl-2-oxo-pyrrolidin-3-yl]methyl]-2,3-dioxo-propyl]carbamoyl]phenyl] carbamate]	5
CNC(=O)C(=O)[C@H](C[C@@H]1C[C@@H](C)NC1=O)NC(=O)c1cc(Cl)ccc1NC(=O)OC(C)(C)C [Example 153, tert-butyl N-[4-chloro-2-[[(1S)-3-(methylamino)-1-[[(3S,5R)-5-methyl-2-oxo-pyrrolidin-3-yl]methyl]-2,3-dioxo-propyl]carbamoyl]phenyl] carbamate]	39.8
CNC(=O)C(=O)[C@H](C[C@@H]1C[C@@H](C)NC1=O)NC(=O)c1cc(Cl)c(F)cc1NC(=O)OC1CC1 [Example 154, cyclopropyl N-[4-chloro-5-fluoro-2-[(1S)-3-(methylamino)-1-[[(3S,5R)-5-methyl-2-oxo-pyrrolidin-3-yl]methyl]-2,3-dioxo-propyl]carbamoyl]phenyl] carbamate]	4.5
CNC(=O)C(=O)[C@H](C[C@@H]1C[C@@H](C)NC1=O)NC(=O)c1cc(F)c(Cl)cc1NC(=O)OC1CC1 [Example 155, cyclopropyl N-[5-chloro-4-fluoro-2-[[(1S)-3-(methylamino)-1-[[(3S,5R)-5-methyl-2-oxo-pyrrolidin-3-yl]methyl]-2,3-dioxo-propyl]carbamoyl]phenyl] carbamate]	30.4
CNC(=O)C(=O)[C@H](C[C@@H]1CCNC1=O)NC(=O)c1cc(Cl)ccc1NC(=O)OC1CC1(F)F (some centres unmarked) [Example 156]	14.6
CNC(=O)C(=O)[C@H](C[C@@H]1CCNC1=O)NC(=O)c1cc(Cl)ccc1NC(=O)OC1CC1(F)F (stereo partly drawn) [Example 157, (2,2-difluorocyclopropyl) N-[4-chloro-2-[[(1S)-3-(methylamino)-2,3-dioxo-1-[[(3S)-2-oxopyrrolidin-3-yl]methyl]propyl]carbamoyl]phenyl]carbamate]	8.9
C[C@@H]1C[C@@H](C[C@H](NC(=O)c2cc(Cl)ccc2NC(=O)CCC(F)(F)F)C(=O)C(N)=O)C(=O)N1 [Example 158, N-[(1S)-3-amino-1-[[(3S,5R)-5-methyl-2-oxo-pyrrolidin-3-yl]methyl]-2,3-dioxo-propyl]-5-chloro-2-(4,4,4-trifluorobutanoylamino) benzamide]	8.3
CNC(=O)C(=O)[C@H](C[C@@H]1CCNC1=O)NC(=O)c1cc(Cl)ccc1NC(=O)CCC(F)(F)F [Example 159, 5-chloro-N-[(1S)-3-(methylamino)-2,3-dioxo-1-[[(3S)-2-oxopyrrolidin-3-yl]methyl]propyl]-2-(4,4,4-trifluorobutanoylamino) benzamide]	7.9
C[C@@H]1C[C@@H](C[C@H](NC(=O)c2cc(Cl)ccc2NC(=O)OC2CC2)C(=O)C(=O)NC2CC2)C(=O)N1 [Example 160, cyclopropyl N-[4-chloro-2-[[(1S)-3-(cyclopropylamino)-1-[[(3S,5R)-5-methyl-2-oxo-pyrrolidin-3-yl]methyl]-2,3-dioxo-propyl]carbamoyl]phenyl] carbamate]	8.8
O=C(Nc1ccc(Cl)cc1C(=O)N[C@@H](C[C@@H]1CCNC1=O)C(=O)C(=O)NC1CC1)OC1CCC1 [Example 161, cyclobutyl N-[4-chloro-2-[[(1S)-3-(cyclopropylamino)-2,3-dioxo-1-[[(3S)-2-oxopyrrolidin-3-yl]methyl]propyl]carbamoyl]phenyl]carbamate]	5.9
O=C(Nc1ccc(Cl)cc1C(=O)N[C@@H](C[C@@H]1CCNC1=O)C(=O)C(=O)NC1CC1)OCC1CC1 [Example 162, cyclopropylmethyl N-[4-chloro-2-[[(1S)-3-(cyclopropylamino)-2,3-dioxo-1-[[(3S)-2-oxopyrrolidin-3-yl]methyl]propyl]carbamoyl]phenyl]carbamate]	7.5
CNC(=O)C(=O)[C@H](C[C@@H]1CCNC1=O)NC(=O)c1cc(Cl)ccc1NC(=O)OCC(F)(F)F [Example 163, 2,2,2-trifluoroethyl N-[4-chloro-2-[[(1S)-3-(methylamino)-2,3-dioxo-1-[[(3S)-2-oxopyrrolidin-3-yl]methyl]propyl]carbamoyl]phenyl]carbamate]	8.6
CO[C@H](C)C(=O)Nc1ccc(Cl)cc1C(=O)N[C@@H](C[C@@H]1C[C@@H](C)NC1=O)C(=O)C(=O)NC1CC1 [Example 164, 5-chloro-N-[(1S)-3-(cyclopropylamino)-1-[[(3S,5R)-5-methyl-2-oxo-pyrrolidin-3-yl]methyl]-2,3-dioxo-propyl]-2-[[(2R)-2-methoxypropanoyl]amino] benzamide]	4.8
